Assay results reported in article PMC10252594 (Cancers, 2023).
“And” between values parts separate entries of the source, which are not always exact repeats. Equal values may be shown once. Read-outs that look alike come from different tables or passages of the source.

Legend:
LAPC-4 cells = assay: LAPC-4 cell viability proliferation and combination index assays (MTS, 6 days); format: cell-based, human
Procedure: LAPC-4 cells (1 × 10^4 cells/well) were seeded in triplicate in 96-well plates in IMDM (Iscove’s modified Dulbecco’s medium) (90 μL) supplemented (v/v) with 5% fetal FBS, 1% L-glutamine, 1% insulin, and 1% penicillin/streptomycin. The cells were incubated at 37 °C in a 5% CO2 humidified atmosphere for 24 h. […] After 6 days of incubation, the cell proliferation was determined by adding 10 µL of MTS followed by incubation at 37 °C for 4 h. Plates were then analyzed at 490 nm using a Tecan M-200 microplate reader (Männedorf, Switzerland). Using GraphPad Prism 7 software, the IC50 values were calculated. The values represent the average of two independent experiments performed in triplicate. According to the Chou–Talalay method and using the following formula, the CI (combination) was calculated. CI=(D)1/(DX)1+(D)2/(DX)2
Denominators (DX)l and (DX)2 are the doses of individual drugs required to achieve a given effect level, and numerators (D)1 and (D)2 are the concentrations of each drug present in combination to trigger the same effect level. When the drugs interact additively, CI = 1, but a CI < 1 indicates a synergistic interaction, and a CI > 1 indicates an antagonistic effect.

LAPC-4 xenografts = tested on: LAPC-4 xenografts
Source text: The xenograft experiment was approved by the Université Laval Animal Care Committee (Comité de Protection des Animaux de l’Université Laval, Québec, QC, Canada) and carried out in an animal facility approved by the Canadian Council on Animal Care (CCAC). Homozygous male Balb/c athymic nude mice (~42 days old, weighing approximately 28 g) were obtained from Charles River Inc. (Saint-Constant, QC, Canada) and housed (4 to 5) in vinyl micro-isolated ventilated cages equipped with air lids. Cages were kept in laminar airflow hoods and maintained in pathogen-limiting conditions. The animals were housed under a controlled environment at 22 ± 3 °C with 50 ± 20% relative humidity and light set at 12 h/day (light on at 07:15) during the acclimatization and study periods. Sterile water and rodent food (Rodent Diet #T.2018.15, Harlan Teklad, Madison, WI, USA) were provided ad libitum.
After an acclimatization period of 5 days, the mice were inoculated into both flanks by subcutaneous (SC) injection of 4 × 10^6 LAPC-4 cells (Passage 14) in 0.1 mL of growth medium containing 50% Matrigel (BD Biosciences, Mississauga, ON, Canada) via a 2.5-cm long 22-gauge needle. Two weeks later, mice that developed tumors were randomized according to tumor volume, divided into […] groups (Gr-1 to Gr-8), and treated over a period of 28 days. A bilateral orchiectomy was performed under isoflurane-induced anesthesia for Gr-1 but not for Gr-2 to Gr-8. Both Gr-1 (CTX control (CTL), 9 mice, 16 tumors) and Gr-2 (intact CTL, 9 mice, 18 tumors) were treated with 0.1 mL of the vehicle alone (8% DMSO/92% propylene glycol (PG) administered by gavage (PO). Gr-3 (30 mg/kg/PO, 10 mice, 19 tumors) received 0.843 mg of RM-581. Gr-4 (10 mg/kg/PO, 10 mice, 20 tumors) received 0.281 mg of RM-581. Gr-5 (3 mg/kg/PO, 10 mice, 18 tumors) received 0.084 mg of RM-581. Gr-6 (60 mg/kg/SC, 9 mice, 18 tumors) received 1.686 mg of abiraterone. Gr-7 (60 mg/kg/PO, 9 mice, 17 tumors) received 1.686 mg of abiraterone acetate. Gr-8 (4 mg/kg/IP, 9 mice, 17 tumors) received 0.112 mg of docetaxel.
RM-581 and abiraterone acetate were administered six days a week PO; abiraterone was administered six days a week SC; and docetaxel was administered twice a week by intraperitoneal (IP) injection. RM-581 was first dissolved in DMSO, and thereafter we added PG to obtain the appropriate concentration in the vehicle fluid (8% DMSO/92% PG). Abiraterone acetate and abiraterone were dissolved in 0.3% hydroxypropyl cellulose in saline (0.9% NaCl), while docetaxel was first dissolved in DMSO, and thereafter we added phosphate-buffered saline (PBS) to obtain the proper concentration in the carrier fluid (0.5% DMSO/99.5% PBS). All solutions were prepared one day prior to the initiation of treatment and stored at 4 °C under constant agitation.
The mice were weighed at the start and end of the protocol. Tumor area (mm^2) was calculated twice a week using two perpendicular diameters (L and W), which were recorded using a caliper, and the formula L/2 × W/2 × π. The area measured on the first day of treatment was fixed at 100%. At the end of the studies and 3 h after the last treatment, the mice were terminally anesthetized, and their final body weights were measured. Tumors, liver, kidney, and total prostate were collected from mice during necropsy, while blood was collected by cardiac puncture. Tissues and plasma were immediately frozen at −80 °C until analysis.

LAPC-4 = assay: PCa cell viability proliferation screening (MTS), LAPC-4; format: cell-based; conditions: Homo sapiens, LAPC4, 72 h, LAPC-4, AR positive, three days
Procedure: VCaP (4 × 10^4 cells/well) were seeded in 96-well plates in DMEM media supplemented with 10% fetal bovine serum (FBS), penicillin, streptomycin, and sodium pyruvate. 22Rv1 cells (2 × 10^3 cells/well) and LAPC-4 cells (6 × 10^3 cells/well) were seeded in 96-well plates in RPMI media supplemented with 10% FBS, penicillin, streptomycin, and sodium pyruvate. The cells were incubated at 37 °C in a 5% CO2 humidified atmosphere for 24 h before treatment with multiple concentrations of RM-581 dissolved in dimethyl sulfoxide (DMSO). The concentrations used were between 0.01 μM and 50 μM. Treatment lasted for 3 days for all the cell lines except VCaP cells, which were treated for 7 days due to slower proliferation rates. At the end of the assay, 20 μL of MTS (Cell Titer 96 Aqueous, Promega, Nepean, ON, Canada) were added to each well, and the mixture was incubated for 4 h at 37 °C. The plates were subsequently analyzed at 490 nm using a Tecan M-200 microplate reader (Männedorf, Switzerland).

C#C[C@]1(O)CC[C@H]2[C@@H]3CCc4cc(OC)c(N5CCN(C(=O)[C@@H]6CCCN6C(=O)c6ccc7ccccc7n6)CC5)cc4[C@H]3CC[C@@]21C [RM-581]
IC50 (LAPC-4 cells; Homo sapiens, LAPC4, 144 h, LAPC-4, six days of treatment, read-out: IC50, single experiments (Figure 2A)): 450 nM | IC50 (LAPC-4 cells; Homo sapiens, LAPC4, 144 h, LAPC-4, six days, slightly different culture conditions, read-out: IC50, single experiments (Figure 3)): 510 nM | IC50 (LAPC-4 cells; Homo sapiens, LAPC4, 144 h, LAPC-4, six days, slightly different culture conditions, read-out: Mean IC50 (Figure 3)): 570 ± 140 nM | IC50 (LAPC-4 cells; Homo sapiens, LAPC4, 144 h, LAPC-4, six days, single drugs and 1:1 combinations, read-out: IC50 (Figure 2B)): 560 nM | IC50 (LAPC-4 cells; Homo sapiens, LAPC4, LAPC-4, read-out: IC50 in LAPC-4 cells, approximate summary value): ~500 nM | IC50 (LAPC-4 cells; LAPC-4, six days of treatment, read-out: IC50, single experiments (Figure 2A)): 300 nM and 550 nM | IC50 (LAPC-4 cells; LAPC-4, six days, slightly different culture conditions, read-out: IC50, single experiments (Figure 3)): 470 nM and 730 nM | time to significant difference with intact (untreated) group (LAPC-4 xenografts; 3 mg/kg PO): 14 days | tumor growth (LAPC-4 xenografts; 3 mg/kg PO, 6 days per week): tumors returned to their original size after 22 days | time to significant difference with intact (untreated) group (LAPC-4 xenografts; 10 mg/kg PO): 7 days | tumor size compared with 30 mg/kg group (LAPC-4 xenografts; 10 mg/kg PO, 6 days per week, day 28): identical at the end of the protocol | time to significant difference with intact (untreated) group (LAPC-4 xenografts; 30 mg/kg PO): 7 days | reduction in the initial tumor size at end of protocol (LAPC-4 xenografts; 30 mg/kg PO, 6 days per week, day 28): 88% | effective oral doses for tumor regression (LAPC-4 xenografts; LAPC-4 xenograft, PO): 3 to 30 mg/kg | IC50 (LAPC-4): 560 nM
